Legend:
[1] = biological target: T1, GAL4-hERα ligand binding domain (LBD) chimeric receptor (Homo sapiens, UniProt P03372); test: Transactivation assay for estrogen receptor, ALP reporter, compound alone (ERα); type: cell-based; details: for Maximum activation for ERα: concentration not given; for Activation of ERα: under tested condition (maximum tolerable 2 μM)
T1 construct: expressed in transfected cells; host or cells: CHO-K1 (Chinese hamster cells), transient co-transfection with (UAS)4-ALP reporter plasmid
T1 sequence (P03372 311-547 limits assumed): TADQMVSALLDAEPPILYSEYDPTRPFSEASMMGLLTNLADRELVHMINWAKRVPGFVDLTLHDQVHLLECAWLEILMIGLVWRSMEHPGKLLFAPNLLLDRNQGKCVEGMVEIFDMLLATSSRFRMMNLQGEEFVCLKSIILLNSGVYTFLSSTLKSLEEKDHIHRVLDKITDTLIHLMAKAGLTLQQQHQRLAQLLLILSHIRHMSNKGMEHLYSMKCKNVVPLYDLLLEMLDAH
From the text: (§1) 1. Estrogen Activity Analysis: Transactivation Assay for Estrogen Receptor
(§2) Plasmid pBKCMV containing GAL4-hERα (or ERβ) ligand binding domain (LBD) chimeric receptors and plasmid containing (UAS)4-alkaline phosphatase (ALP) […] were co-transfected into Chinese hamster cells (CHO-K1). Compounds with estrogenic activity would interact with estrogen-specific ER to induce the binding of GAL4 and upstream activation sequence (UAS)4 specifically to initiate the expression of ALP gene. Therefore, the ALP activity can be used to determine whether the samples to be assayed have the estrogenic activity.
Cells in high confluence were plated onto 96-well culture plate the day before transfection. The plate was then washed to remove the serum during the day of transfection, followed by addition of two plasmid DNA, GAL4-hER[…] and (UAS)4-ALP in the ratio of 1:1 together with Lipofectamine 2000 (GIBCOBRL) transfection agent and culture medium to form DNA-liposome complex for 5 hours. The sample to be assayed was added into the medium of transfected cells and cultivated for two days.

[2] = biological target: T2, GAL4-hERβ ligand binding domain (LBD) chimeric receptor (Homo sapiens, UniProt Q92731); test: Transactivation assay for estrogen receptor, ALP reporter, compound alone (ERβ); type: cell-based; details: for Maximum activation for ERβ: concentration not given; for Activation of ERβ: under tested condition (maximum tolerable 2 μM); for EC50: compound alone
T2 construct: expressed in transfected cells; host or cells: CHO-K1 (Chinese hamster cells), transient co-transfection with (UAS)4-ALP reporter plasmid
T2 sequence (Q92731 264-498 limits assumed, change not shown): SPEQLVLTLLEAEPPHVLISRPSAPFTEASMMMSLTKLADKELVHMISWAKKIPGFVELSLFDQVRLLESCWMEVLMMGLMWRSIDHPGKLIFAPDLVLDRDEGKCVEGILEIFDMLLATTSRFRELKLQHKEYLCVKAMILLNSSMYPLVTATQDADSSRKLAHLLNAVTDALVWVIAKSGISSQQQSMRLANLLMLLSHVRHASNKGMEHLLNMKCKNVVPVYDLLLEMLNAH
From the text: as §1, §2
(§3) The CHO-K1 cell purchased from the Food Industry Research and Development Institute Taiwan with an accession number of CCRC 60006 were cultivated with medium containing 10% FBS and Ham's F12 nutrient mixture (GIBCOBRL). Cells in high confluence were plated onto 96-well culture plate the day before transfection. The plate was then washed to remove the serum during the day of transfection, followed by addition of two plasmid DNA, GAL4-hER[…] and (UAS)4-ALP in the ratio of 1:1 together with Lipofectamine 2000 (GIBCOBRL) transfection agent and culture medium to form DNA-liposome complex for 5 hours. The sample to be assayed was added into the medium of transfected cells and cultivated for two days. The medium was aliquoted for ALP assay using 4-Nitrophenul phosphate disodium salt hexahydrate (pNPP) as the colorimetric substrate for alkaline phosphatase, and reading the absorbance of 405 nm.

[3] = biological target: T1, GAL4-hERα ligand binding domain (LBD) chimeric receptor; test: Transactivation assay, combination treatment with 1 nM E2 (ERα); type: cell-based
From the text: as §2, §3

[4] = biological target: T2, GAL4-hERβ ligand binding domain (LBD) chimeric receptor; test: Transactivation assay, combination treatment with 1 nM E2 (ERβ); type: cell-based
From the text: as §2, §3

[5] = test system: CHO-K1 cells; test: Cytotoxicity to the cells of the transactivation assay; type: cell-based, Chinese hamster

CC(C)=CC(O)C[C@@H](C)[C@H]1CC[C@@]2(C)[C@@H]3C=C[C@@]45OC[C@]3(CC[C@]12C)C4CC[C@H](O)C5(C)C (single isomer, unassigned) [compound 6, 5β,19-epoxycucurbita-6,24-dien-3β,23ξ-diol]
Maximum activation effect for ERα ([1]; at 22 μM, relative to 1 nM E2): 30 % of E2 | Maximum activation effect for ERβ ([2]; at 22 μM, relative to 1 nM E2): 23 % of E2 | ALP activity, E2-induced ERα activation remaining (E2 = 100%) ([3]; 22 μM compound + 1 nM E2): 10% | ALP activity, E2-induced ERβ activation remaining (E2 = 100%) ([4]; 22 μM compound + 1 nM E2): 24%

CC(C)=C/C=C/[C@@H](C)[C@H]1CC[C@@]2(C)[C@@H]3C=C[C@@]45OC(=O)[C@]3(CC[C@]12C)C4CC[C@H](O)C5(C)C (stereo partly drawn) [compound 1, cucurbita-6,22(E),24-trien-3β-ol-19,5β-olide]
Maximum activation for ERα ([1]; relative to 1 nM E2): 12 % of E2 | Maximum activation for ERβ ([2]; relative to 1 nM E2): 10 % of E2

CC(C)=C/C=C/[C@@H](C)[C@H]1CC[C@@]2(C)[C@@H]3C=C[C@@]45OC(O)[C@]3(CC[C@]12C)C4CC[C@H](O)C5(C)C (stereo partly drawn) [compound 2, 5β,19-epoxycucurbita-6,22(E),24-trien-3β,19-diol]
Maximum activation for ERα ([1]; relative to 1 nM E2): 15 % of E2 | Maximum activation for ERβ ([2]; relative to 1 nM E2): 8 % of E2

CC(C)=C/C=C/[C@@H](C)[C@H]1CC[C@@]2(C)[C@@H]3C=CC4=C(CC[C@H](O)C4(C)C)[C@]3(C=O)CC[C@]12C [compound 3, 3β-hydroxycucurbita-5(10),6,22(E),24-tetraen-19-al]
Activation of ERα [1]: no significant activation | Activation of ERβ [2]: no significant activation | ALP activity, E2-induced ERα activation remaining (E2 = 100%) ([3]; 2 μM compound + 1 nM E2): 48% | ALP activity, E2-induced ERβ activation remaining (E2 = 100%) ([4]; 2 μM compound + 1 nM E2): 73% | Cytotoxicity: maximum tolerable concentration for cells [5]: 2 µM

COC(OC)[C@@]12CC[C@]3(C)[C@@H]([C@H](C)/C=C/C=C(C)C)CC[C@@]3(C)[C@@H]1C=CC1=C2CC[C@H](O)C1(C)C [compound 4, 19-dimethoxycucurbita-5(10),6,22(E),24-tetraen-3β-ol]
Activation of ERα [1]: no significant activation | Activation of ERβ [2]: no significant activation | Cytotoxicity: maximum tolerable concentration for cells [5]: 2 µM

CC(C)=C/C=C/[C@@H](C)[C@H]1CC[C@@]2(C)c3ccc4c(c3CC[C@]12C)CC[C@H](O)C4(C)C [compound 5, 19-nor-cucurbita-5(10),6,8,22(E),24-pentaen-3β-ol]
Maximum activation for ERα ([1]; relative to 1 nM E2): 15 % of E2 | Maximum activation for ERβ ([2]; relative to 1 nM E2): 9 % of E2 | E2 induced activation of ERβ remaining ([4]; 1 μM compound + 1 nM E2, p<0.05): 83 % of E2

CC1(C)C[C@H](O)C[C@@]2(C)OC(=O)C=C12 [loliolide, Loliolide]
Maximum activation of ERα ([1]; at 102 (unit not given)): 24 % of E2 | EC50 ([1]; compound alone): 14.2 µM | Maximum activation of ERβ ([2]; at 51 μM): 20 % of E2 | EC50 [2]: 16.7 µM | Maximum activation of ERα with E2 ([3]; 102 μM + 1 nM E2): 146 % of E2 | Maximum activation of ERβ with E2 ([4]; 51 μM + 1 nM E2): 145 % of E2

CC1=C[C@H](O)CC(C)(C)[C@H]1/C=C/C(C)=C/C=C/C(C)=C/C=C/C=C(C)/C=C/C=C(C)/C=C/C1=C(C)C[C@@H](O)CC1(C)C [lutein, Lutein]
Maximum activation of ERβ ([2]; at 35 μM): 26 % that of E2 | EC50 [2]: 11.8 µM | Maximum activation of ERβ with E2 ([4]; lutein at 18 (unit not given) + 1 nM E2): 166 % that of E2

— US8669244B2, “Cucurbitane-triterpenoid compounds, pharmaceutical composition, use and preparation method thereof” (National Taiwan University, priority 2011, dated 2014)
